Laboratory results: PubChem BioAssay AID248 (DTP/NCI, 2004)
Toxic doses and inconclusive results are not listed. No stated cut-off is given here; in the data, active means T/C of 150% or more; inactive means T/C below 125%.

System: L1210 leukemia ip in BDF1 mice, survival T/C
Assay: NCI In Vivo Anticancer Drug Screen. Data for tumor model L1210 Leukemia (intraperitoneal) in B6D2F1 (BDF1) mice
Conditions: endpoint: mean survival time, higher = longer survival
In short: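 Value reflects the ratio of survival in compound-treated mice to survival in vehicle-treated controls, with both groups carrying the same transplanted tumor.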

[1] = dose: 100.0 mg/kg/injection, schedule: Q04DX003 (ip), vehicle: saline with Tween-80
[2] = dose: 100.0 mg/kg/injection, schedule: Q04DX003 (ip), vehicle: saline
[3] = dose: 200.0 mg/kg/injection, schedule: Q04DX003 (ip), vehicle: saline with Tween-80
[4] = dose: 400.0 mg/kg/injection, schedule: Q04DX003 (ip), vehicle: saline with Tween-80
[5] = dose: 100.0 mg/kg/injection, schedule: Q04DX003 (ip), vehicle: Klucel (hydroxypropylcellulose) (HPC)
[6] = dose: 200.0 mg/kg/injection, schedule: Q04DX003 (ip), vehicle: Klucel (hydroxypropylcellulose) (HPC)
[7] = dose: 400.0 mg/kg/injection, schedule: Q04DX003 (ip), vehicle: Klucel (hydroxypropylcellulose) (HPC)
[8] = dose: 100.0 mg/kg/injection, schedule: Q01DX009 (ip), vehicle: Klucel (hydroxypropylcellulose) (HPC)
[9] = dose: 100.0 mg/kg/injection, schedule: Q04DX002 (ip), vehicle: Klucel (hydroxypropylcellulose) (HPC)
[10] = dose: 200.0 mg/kg/injection, schedule: Q01DX009 (ip), vehicle: Klucel (hydroxypropylcellulose) (HPC)
[11] = dose: 400.0 mg/kg/injection, schedule: Q01DX009 (ip), vehicle: Klucel (hydroxypropylcellulose) (HPC)
[12] = dose: 100.0 mg/kg/injection, schedule: Q01DX009 (ip), vehicle: saline with Tween-80
[13] = dose: 200.0 mg/kg/injection, schedule: Q01DX009 (ip), vehicle: saline with Tween-80
[14] = dose: 50.0 mg/kg/injection, schedule: Q01DX001 (ip), vehicle: carboxymethylcellulose (CMC)
[15] = dose: 100.0 mg/kg/injection, schedule: Q01DX001 (ip), vehicle: carboxymethylcellulose (CMC)
[16] = dose: 200.0 mg/kg/injection, schedule: Q01DX001 (ip), vehicle: carboxymethylcellulose (CMC)
[17] = dose: 400.0 mg/kg/injection, schedule: Q01DX001 (ip), vehicle: carboxymethylcellulose (CMC)
[18] = dose: 100.0 mg/kg/injection, schedule: Q01DX001 (ip), vehicle: saline
[19] = dose: 200.0 mg/kg/injection, schedule: Q01DX001 (ip), vehicle: saline

Measured: T/C

CC(C)C(C(=O)O)N1C(=O)C2C3CCC(C3)C2C1=O (centres undefined)
inactive: dose: 25.0 mg/kg/injection, schedule: Q04DX003 (ip), vehicle: saline 86 % of control | dose: 50.0 mg/kg/injection, schedule: Q04DX003 (ip), vehicle: saline 93 % of control | [1] 89 % of control | [2] 96 % of control | [3] 103 % of control | [4] 98 % of control

CCOC(=O)/C(O)=C/c1nc2ccccc2nc1C
inactive: [5] 105 % of control | [6] 96 % of control | [7] 99 % of control

OCCCCN=Cc1ccccc1O.OCCCCN=Cc1ccccc1O.[Cu]
inactive: dose: 9.5 mg/kg/injection, schedule: Q01DX001 (ip), vehicle: other 102 % of control | dose: 19.0 mg/kg/injection, schedule: Q01DX001 (ip), vehicle: other 108 % of control | dose: 38.0 mg/kg/injection, schedule: Q01DX001 (ip), vehicle: other 100 % of control | dose: 75.0 mg/kg/injection, schedule: Q01DX001 (ip), vehicle: other 96 % of control

O=C1Nc2ncnn2C1=O
inactive: dose: 100.0 mg/kg/injection, schedule: Q01DX005 (ip), vehicle: Klucel (hydroxypropylcellulose) (HPC) 98 % of control | [8] 101 % of control | [9] 93 % of control | dose: 200.0 mg/kg/injection, schedule: Q01DX005 (ip), vehicle: Klucel (hydroxypropylcellulose) (HPC) 98 % of control | [10] 93 % of control | dose: 200.0 mg/kg/injection, schedule: Q04DX002 (ip), vehicle: Klucel (hydroxypropylcellulose) (HPC) 96 % of control | dose: 400.0 mg/kg/injection, schedule: Q01DX005 (ip), vehicle: Klucel (hydroxypropylcellulose) (HPC) 98 % of control | [11] 101 % of control | dose: 400.0 mg/kg/injection, schedule: Q04DX002 (ip), vehicle: Klucel (hydroxypropylcellulose) (HPC) 104 % of control

CCCCc1c(C)[nH]c(=S)[nH]c1=O
inactive: [12] 95 % of control | [13] 100 % of control | dose: 400.0 mg/kg/injection, schedule: Q01DX009 (ip), vehicle: saline with Tween-80 91 % of control

CCN1CCC2CN(C(=S)Nc3ccccc3)CCN2C1=O (centres undefined)
inactive: [1] 97 % of control | [3] 94 % of control | [4] 91 % of control

C[n+]1c(-c2ccc(Cl)cc2Cl)c2cc([N+](=O)[O-])ccc2c2ccccc21
inactive: dose: 12.5 mg/kg/injection, schedule: Q01DX009 (ip), vehicle: water 113 % of control | dose: 25.0 mg/kg/injection, schedule: Q01DX009 (ip), vehicle: water 113 % of control | dose: 25.0 mg/kg/injection, schedule: Q04DX003 (ip), vehicle: water 108 % of control | dose: 50.0 mg/kg/injection, schedule: Q01DX009 (ip), vehicle: water 101 % of control | dose: 100.0 mg/kg/injection, schedule: Q04DX003 (ip), vehicle: water 95 % of control

CC(C)CCS(=O)(=O)OCCCCOS(=O)(=O)CCC(C)C
inactive: [14] 109 % of control | [15] 104 % of control | [8] 106 % of control | [5] 105 % of control | [16] 101 % of control | [10] 102 % of control | [6] 105 % of control | [17] 103 % of control | [11] 109 % of control | [7] 106 % of control

C=CCNC(=O)c1ccccc1O
inactive: dose: 100.0 mg/kg/injection, schedule: Q01DX009 (sc), vehicle: olive oil, sesame oil, peanut oil 101 % of control | dose: 100.0 mg/kg/injection, schedule: Q04DX003 (sc), vehicle: olive oil, sesame oil, peanut oil 91 % of control | dose: 200.0 mg/kg/injection, schedule: Q01DX009 (sc), vehicle: olive oil, sesame oil, peanut oil 101 % of control | dose: 200.0 mg/kg/injection, schedule: Q04DX003 (sc), vehicle: olive oil, sesame oil, peanut oil 100 % of control | dose: 400.0 mg/kg/injection, schedule: Q01DX009 (sc), vehicle: olive oil, sesame oil, peanut oil 94 % of control | dose: 400.0 mg/kg/injection, schedule: Q04DX003 (sc), vehicle: olive oil, sesame oil, peanut oil 91 % of control

CCCCCCCNN=C(N)N
inactive: [18] 98 % of control | [2] 111 % of control | [19] 98 % of control | dose: 200.0 mg/kg/injection, schedule: Q04DX003 (ip), vehicle: saline 95 % of control | dose: 400.0 mg/kg/injection, schedule: Q01DX001 (ip), vehicle: saline 97 % of control | dose: 400.0 mg/kg/injection, schedule: Q04DX003 (ip), vehicle: saline 117 % of control

COc1ccc(C(=O)CCN2CCC(O)(c3ccccc3)CC2)cc1
inactive: dose: 12.5 mg/kg/injection, schedule: Q04DX003 (ip), vehicle: saline with Tween-80 100 % of control | dose: 25.0 mg/kg/injection, schedule: Q04DX003 (ip), vehicle: saline with Tween-80 92 % of control | dose: 50.0 mg/kg/injection, schedule: Q04DX003 (ip), vehicle: saline with Tween-80 96 % of control

COC(=O)CCSC(c1ccccc1)(c1ccccc1)c1ccccc1
inactive: [8] 104 % of control | [5] 96 % of control | [10] 94 % of control | [6] 93 % of control | [11] 100 % of control | [7] 93 % of control

CCOC(=O)C1C2/C=C/CCCCC21 (centres undefined)
inactive: dose: 100.0 mg/kg/injection, schedule: Q04DX002 (ip), vehicle: saline with Tween-80 105 % of control | dose: 200.0 mg/kg/injection, schedule: Q04DX002 (ip), vehicle: saline with Tween-80 112 % of control | dose: 400.0 mg/kg/injection, schedule: Q04DX002 (ip), vehicle: saline with Tween-80 98 % of control

c1ccc(Nc2nc3ccccc3o2)cc1
inactive: dose: 100.0 mg/kg/injection, schedule: Q01DX001 (ip), vehicle: Klucel (hydroxypropylcellulose) (HPC) 93 % of control | [8] 92 % of control | dose: 200.0 mg/kg/injection, schedule: Q01DX001 (ip), vehicle: Klucel (hydroxypropylcellulose) (HPC) 89 % of control | [10] 95 % of control | dose: 400.0 mg/kg/injection, schedule: Q01DX001 (ip), vehicle: Klucel (hydroxypropylcellulose) (HPC) 86 % of control | [11] 94 % of control

O=C(c1ccc(F)cc1)c1ccc2ccccc2c1
inactive: [8] 98 % of control | dose: 100.0 mg/kg/injection, schedule: Q04DX003 (ip), vehicle: other 97 % of control | [10] 95 % of control | dose: 200.0 mg/kg/injection, schedule: Q04DX003 (ip), vehicle: other 94 % of control | [11] 92 % of control | dose: 400.0 mg/kg/injection, schedule: Q04DX003 (ip), vehicle: other 94 % of control

CN(C)C=Nc1ccc(F)cc1
inactive: [14] 94 % of control | [15] 102 % of control | [16] 104 % of control | [17] 105 % of control

NNC(=S)Nc1cccc2ccccc12
inactive: dose: 75.0 mg/kg/injection, schedule: Q01DX001 (ip), vehicle: carboxymethylcellulose (CMC) 93 % of control | dose: 150.0 mg/kg/injection, schedule: Q01DX001 (ip), vehicle: carboxymethylcellulose (CMC) 93 % of control

O=C(O)c1cccc2[nH]c(=O)oc(=O)c12
inactive: [12] 103 % of control | [13] 106 % of control

Nc1ccc(S(=O)(=O)CC(=O)N2CCOCC2)cc1
inactive: [1] 100 % of control | [3] 97 % of control | [4] 97 % of control

OCC1CC(n2cnc3c(NO)ncnc32)C(O)C1O (centres undefined)
inactive: dose: 25.0 mg/kg/injection, schedule: Q01DX009 (ip), vehicle: saline with Tween-80 103 % of control | dose: 50.0 mg/kg/injection, schedule: Q01DX009 (ip), vehicle: saline with Tween-80 92 % of control | dose: 75.0 mg/kg/injection, schedule: Q01DX009 (ip), vehicle: saline with Tween-80 86 % of control

O=Cc1ccc2cccnc2c1O
inactive: dose: 50.0 mg/kg/injection, schedule: Q01DX001 (ip), vehicle: saline 114 % of control | [18] 108 % of control | [19] 93 % of control

CCOC(=O)NC(CCN(C)C)(c1cccc2ccccc12)C(C)C (centres undefined)
inactive: dose: 50.0 mg/kg/injection, schedule: Q04DX002 (ip), vehicle: Klucel (hydroxypropylcellulose) (HPC) 100 % of control | [8] 101 % of control | [9] 100 % of control
